Measured values reported in US20040023978A1, “Active salt forms with tyrosine kinase activity” (priority 2002, published 2004).
Like-named read-outs stand apart in the source and are kept apart here.

Columns and labels:
[1] = Solubility at room temperature (HPLC isocratic method); assay type: physicochemical
[2] = Hygroscopicity, step isotherm at 25° C.; assay type: physicochemical; conditions: 90-95% RH
Experimental: The hygroscopicity of the mesylate salt was determined at 25° C. using a step isotherm program for relative humidities from 0 to 95% RH following drying at 40° C./0%RH for two hours.

[3] = Stability of the crystal form (XRPD, hot-stage XRPD)
Text: The mesylate salt (Form A) was further studied using hot-stage XRPD. […] The dehydration could also be achieved by suspending the mesylate monohydrate in hot acetonitrile.

Compound	solubility ([1]; aqueous with cosolvent or surfactant or cyclodextrin, thermodynamic from solid, 10% HP-βCD, pH adjusted with 0.1 N HCl to about pH 3, room temperature, read-out: Solubility) [mg/mL]	solubility ([1]; aqueous with cosolvent or surfactant or cyclodextrin, thermodynamic from solid, 15% HP-βCD, pH adjusted with 0.1 N HCl to about pH 3, room temperature, read-out: Solubility) [mg/mL]	solubility ([1]; aqueous with cosolvent or surfactant or cyclodextrin, thermodynamic from solid, 20% HP-βCD, pH adjusted with 0.1 N HCl to about pH 3, room temperature, read-out: Solubility) [mg/mL]	solubility ([1]; aqueous with cosolvent or surfactant or cyclodextrin, thermodynamic from solid, 25% HP-βCD, pH adjusted with 0.1 N HCl to about pH 3, room temperature, read-out: Solubility) [mg/mL]	solubility ([1]; aqueous with cosolvent or surfactant or cyclodextrin, thermodynamic from solid, 25% PEG/10% EtOH, room temperature, read-out: Solubility) [mg/mL]	solubility ([1]; aqueous with cosolvent or surfactant or cyclodextrin, thermodynamic from solid, 30% PG/10% EtOH, room temperature, read-out: Solubility) [mg/mL]	solubility ([1]; organic solvent or mixture, thermodynamic from solid, Ethanol, room temperature, read-out: Solubility) [mg/mL]	solubility ([1]; organic solvent or mixture, thermodynamic from solid, IPA, room temperature, read-out: Solubility) [mg/mL]	solubility ([1]; organic solvent or mixture, thermodynamic from solid, PEG, room temperature, read-out: Solubility) [mg/mL]	solubility ([1]; organic solvent or mixture, thermodynamic from solid, PG, room temperature, read-out: Solubility) [mg/mL]	solubility ([1]; thermodynamic from solid, water, room temperature (Table I), read-out: Solubility) [mg/mL]	solubility ([1]; water (text b274), read-out: solubility in water) [mg/mL]	weight gain [2]	stability of the form under ambient conditions ([3]; ambient conditions overnight)	behaviour of the aqueous solution on aging ([3]; water, aged for two days, recovered solid by XRPD the monohydrate (Form A))
CNC(=O)N1CCN(Cc2ccnc(Nc3ncc(C#N)s3)c2)CC1.CS(=O)(=O)O [mesylate salt (Form A), 1-({2-[(5-cyano-1,3-thiazol-2-yl)amino]pyridin-4-yl}methyl)-4-[(methylamino)carbonyl]piperazin-1-ium methanesulfonate]	27.1	35.3	40.7	45	11.6	13.6	0.98	0.64	1.41	30.4	6.65	4.7	–	–	–
1-({2-[(5-cyano-1,3-thiazol-2-yl)amino]pyridin-. 4-yl}methyl)-4-[(methylamino)carbonyl]piperazin-1-ium methanesulfonate [dehydrated mesylate salt (Form B)]	–	–	–	–	–	–	–	–	–	–	–	–	about 1.2 % wt.	stable	a white precipitate was noticed
